As a reminder, the mortality is the share of the test organisms that died.

One series concerns Plutella xylostella. As to the kind of experiment: whole plant or invertebrate. The format is in vivo. Conditions: 500 ppm; 2nd-instar larvae, leaf immersion feeding. The method, boiled down: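 Cabbage leaf discs dipped 5 s in compound at 500 ppm (0.05% Tween-80 aqueous), air-dried, fed to about 35 2nd-instar larvae at 28° C., triplicate. Dead larvae counted after 24 h; mortality (%) corrected against Tween-80 control.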
Consider `C[S+]([O-])c1nn2c(c1C#N)NC(F)(C(F)(F)F)c1ccccc1-2` (centres unmarked) [Compound A26], for which the “Plutella xylostella Mortality (%) 500 ppm” value worked out at 100%.

Still in this series, the particulars now being: Plutella xylostella, read-out: Plutella xylostella Mortality (%) 500 ppm.
With `CC1(C)Nc2cc(C#N)nn2-c2ccccc21` [Compound A1, 5,5-dimethyl-4,5-dihydropyrazole[1,5-α]quinazoline-2-cyano], the mortality at 500 ppm worked out at 95%.
As for `CC(=O)N1c2c(Br)c(C#N)nn2-c2ccccc2C1(C)C` [Compound A4], the mortality at 500 ppm worked out at 86%.
As to `CC(=O)c1nn2c(c1Br)NC(C)(C)c1ccccc1-2` [Compound A5], the mortality at 500 ppm was determined as 100%.
The same measure, in the same setting: with `CC1(C)Nc2c(Br)c(C(=O)N3CCCCC3)nn2-c2ccccc21` [Compound A7] the figure was 100%.
Same read-out and setting: for `CC1(C)Nc2c([S+]([O-])C(F)(F)F)c(C#N)nn2-c2ccccc21` (centres unmarked) [Compound A8] the value was 100%; for `Nc1ccc2c(c1)-n1nc(C(F)(F)F)cc1NC2(C(F)(F)F)C(F)(F)F` [Compound A10], 86%.
As for `Nc1ccc2c(c1)-n1nc(C(F)(F)F)c(-c3ccc(F)cc3)c1NC2(C(F)(F)F)C(F)(F)F` [Compound A12], the mortality at 500 ppm turned out to be 100%.

Another series concerns Spodoptera exigua. As to the kind of experiment: whole plant or invertebrate. The format is in vivo. To be noted: 500 ppm; 2nd-instar larvae; leaf immersion feeding; 24 hours. The method, boiled down:
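Cabbage leaf discs dipped 5 s in 500 ppm compound (0.05% Tween-80 aqueous), air-dried, fed to about 35 2nd-instar larvae at 28° C, three replicates. Deaths counted at 24 h; mortality corrected against Tween-80 control.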
As to `C[S+]([O-])c1nn2c(c1C#N)NC(F)(C(F)(F)F)c1ccccc1-2` (centres unmarked) [Compound A26], the “Spodoptera exigua Mortality (%) 500 ppm” value came to 100%.

The same series, now with this note: Spodoptera exigua, 24 h, read-out: Spodoptera exigua Mortality (%) 500 ppm.
With `CC1(C)Nc2cc(C#N)nn2-c2ccccc21` [Compound A1, 5,5-dimethyl-4,5-dihydropyrazole[1,5-α]quinazoline-2-cyano], the mortality at 500 ppm is 90%.
For the compound `CC(=O)N1c2c(Br)c(C#N)nn2-c2ccccc2C1(C)C` [Compound A4], the mortality at 500 ppm is 100%.
In the case of `CC(=O)c1nn2c(c1Br)NC(C)(C)c1ccccc1-2` [Compound A5], the mortality at 500 ppm was determined as 100%.
Same read-out and setting: with `CC1(C)Nc2c(Br)c(C(=O)N3CCCCC3)nn2-c2ccccc21` [Compound A7] the figure was 100%; with `CC1(C)Nc2c([S+]([O-])C(F)(F)F)c(C#N)nn2-c2ccccc21` (centres unmarked) [Compound A8], 90%; with `Nc1ccc2c(c1)-n1nc(C(F)(F)F)cc1NC2(C(F)(F)F)C(F)(F)F` [Compound A10], 100%.
Still for that read-out and setting: with `Nc1ccc2c(c1)-n1nc(C(F)(F)F)c(-c3ccc(F)cc3)c1NC2(C(F)(F)F)C(F)(F)F` [Compound A12] the figure was 100%.

Another series has as its system Aphis craccivora. As to the kind of experiment: whole plant or invertebrate. The format is in vivo. To be noted: 500 ppm; wingless adults; impregnation method; 24 hours. In a few lines: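 Wingless adults feeding on bean sprouts were dipped with the sprouts for 5 s in 500 ppm compound in aqueous 0.05% Tween-80, air-dried, then held at 23° C. Dead aphids counted after 24 h, triplicate, with 0.05% Tween-80 as control. Mortality (%) = (control live − treated live)/control live × 100.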
Regarding `C[S+]([O-])c1nn2c(c1C#N)NC(F)(C(F)(F)F)c1ccccc1-2` (centres unmarked) [Compound A26], the “Aphis craccivora Mortality (%) 500 ppm” value is recorded as 100%.

Still in this series, the particulars now being: Aphis craccivora, 24 h, read-out: Aphis craccivora Mortality (%) 500 ppm.
Take `CC1(C)Nc2cc(C#N)nn2-c2ccccc21` [Compound A1, 5,5-dimethyl-4,5-dihydropyrazole[1,5-α]quinazoline-2-cyano]: the mortality at 500 ppm is 100%.
Still for that read-out and setting: for `CC(=O)N1c2c(Br)c(C#N)nn2-c2ccccc2C1(C)C` [Compound A4] the value was 100%; for `CC(=O)c1nn2c(c1Br)NC(C)(C)c1ccccc1-2` [Compound A5], 100%; for `CC1(C)Nc2c(Br)c(C(=O)N3CCCCC3)nn2-c2ccccc21` [Compound A7], 100%.
Still for that read-out and setting: with `CC1(C)Nc2c([S+]([O-])C(F)(F)F)c(C#N)nn2-c2ccccc21` (centres unmarked) [Compound A8] the figure was 100%; with `Nc1ccc2c(c1)-n1nc(C(F)(F)F)cc1NC2(C(F)(F)F)C(F)(F)F` [Compound A10], 100%.
The same measure, in the same setting: with `Nc1ccc2c(c1)-n1nc(C(F)(F)F)c(-c3ccc(F)cc3)c1NC2(C(F)(F)F)C(F)(F)F` [Compound A12] the figure was 100%.

The test system of a further series is Solenopsis invicta. As to the kind of experiment: whole plant or invertebrate. The format is in vivo. To be noted: 100 ppm; 24 h; water test tube poison-feeding. The method, boiled down: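 Fire ants fed compound by water test-tube poison-feeding at 100 ppm in aqueous 0.05% Tween-80/5% honey (from 10 g/L DMSO stock), kept at 25 °C. Live and dead ants counted at 24 and 72 h; mortality (%) calculated relative to live ants in the untreated control.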
For `C[S+]([O-])c1nn2c(c1C#N)NC(F)(C(F)(F)F)c1ccccc1-2` (centres unmarked) [Compound A26], the “Solenopsis invicta Mortality (%) 100 ppm 24 h” value is reported as 45%.

Still in this series, the particulars now being: 100 ppm; 72 h; water test tube poison-feeding.
Consider `C[S+]([O-])c1nn2c(c1C#N)NC(F)(C(F)(F)F)c1ccccc1-2` (centres unmarked) [Compound A26], for which the “Solenopsis invicta Mortality (%) 100 ppm 72 h” value is listed as 100%.

Staying with this series, now noted: Solenopsis invicta, 24 h, read-out: Solenopsis invicta Mortality (%) 100 ppm 24 h, 100 ppm; 24 h; water test tube poison-feeding.
As for `CC1(C)Nc2cc(C#N)nn2-c2ccccc21` [Compound A1, 5,5-dimethyl-4,5-dihydropyrazole[1,5-α]quinazoline-2-cyano], the mortality at 100 ppm stood at 20%.
Consider `CC(=O)N1c2c(Br)c(C#N)nn2-c2ccccc2C1(C)C` [Compound A4], for which the mortality at 100 ppm worked out at 20%.
Same read-out and setting: for `CC(=O)c1nn2c(c1Br)NC(C)(C)c1ccccc1-2` [Compound A5] the value was 34%; for `CC1(C)Nc2c(Br)c(C(=O)N3CCCCC3)nn2-c2ccccc21` [Compound A7], 20%; for `CC1(C)Nc2c([S+]([O-])C(F)(F)F)c(C#N)nn2-c2ccccc21` (centres unmarked) [Compound A8], 26%.
Same read-out and setting: with `Nc1ccc2c(c1)-n1nc(C(F)(F)F)cc1NC2(C(F)(F)F)C(F)(F)F` [Compound A10] the figure was 20%; with `Nc1ccc2c(c1)-n1nc(C(F)(F)F)c(-c3ccc(F)cc3)c1NC2(C(F)(F)F)C(F)(F)F` [Compound A12], 44%.

The series is the same for the next values; noted with them: Solenopsis invicta, 72 h, read-out: Solenopsis invicta Mortality (%) 100 ppm 72 h, 100 ppm; 72 h; water test tube poison-feeding.
Consider `CC1(C)Nc2cc(C#N)nn2-c2ccccc21` [Compound A1, 5,5-dimethyl-4,5-dihydropyrazole[1,5-α]quinazoline-2-cyano], for which the mortality at 100 ppm is 87%.
Still for that read-out and setting: with `CC(=O)N1c2c(Br)c(C#N)nn2-c2ccccc2C1(C)C` [Compound A4] the figure was 87%; with `CC(=O)c1nn2c(c1Br)NC(C)(C)c1ccccc1-2` [Compound A5], 100%; with `CC1(C)Nc2c(Br)c(C(=O)N3CCCCC3)nn2-c2ccccc21` [Compound A7], 100%.
Consider `CC1(C)Nc2c([S+]([O-])C(F)(F)F)c(C#N)nn2-c2ccccc21` (centres unmarked) [Compound A8], for which the mortality at 100 ppm amounted to 93%.
Still for that read-out and setting: for `Nc1ccc2c(c1)-n1nc(C(F)(F)F)cc1NC2(C(F)(F)F)C(F)(F)F` [Compound A10] the value was 87%; for `Nc1ccc2c(c1)-n1nc(C(F)(F)F)c(-c3ccc(F)cc3)c1NC2(C(F)(F)F)C(F)(F)F` [Compound A12], 100%.

The next series has as its system Bombyx mori L. As to the kind of experiment: Toxicity test on 2nd-instar larvae of Bombyx mori L., leaf immersion feeding method. To be noted: 1000 ppm, 24 hours. The format is in vivo. The method, then:
(1) Toxicity Test on 2nd-Instar Larvae of Bombyx mori L.
Bombyx mori L. is an important economic insect sensitive to pesticides in an agricultural ecosystem, and is also one of the non-target organisms of environmental ecology listed in pesticide registration of China. The 2nd-instar larvae of Bombyx mori L. were used as test objects and tested by using a leaf immersion feeding method.
Operation process: Samples were weighed accurately, and respectively added with 200 μL of dimethyl sulfoxide to prepare 10 g/L mother liquor which was diluted into a concentration of 1000 ppm with an aqueous solution containing 0.05% of Tween-80 during the test. Young cotyledons of mulberries were collected, washed and air-dried, immersed in a liquid medicine, taken out after 5 seconds, naturally air-dryed, and then transferred into a clean vessel. About 35 2nd -instar larvae of Bombyx mori L. were put into the vessel and fed at a constant temperature of 25° C. Each concentration was repeated 3 times, and an aqueous solution containing 0.05% of Tween-80 was used as a control group. After being treated for 24 hours, a number of dead Bombyx mori L. was counted, and a mortality (%) was calculated according to a formula that mortality (%)=(number of live larvae in the control group −number of treated live larvae)/number of live larvae in the control group * 100%.
Regarding `CC1(C)Nc2cc(C#N)nn2-c2ccccc21` [Compound A1, 5,5-dimethyl-4,5-dihydropyrazole[1,5-α]quinazoline-2-cyano], the “Toxicity determination Bombyx mori L. Mortality (%)” value is on record as 9%.
Regarding `CC(=O)N1c2c(Br)c(C#N)nn2-c2ccccc2C1(C)C` [Compound A4], the “Toxicity determination Bombyx mori L. Mortality (%)” value is 10%.
The same measure, in the same setting: for `CC(=O)c1nn2c(c1Br)NC(C)(C)c1ccccc1-2` [Compound A5] the value was 2%.
`CC1(C)Nc2c(Br)c(C(=O)N3CCCCC3)nn2-c2ccccc21` [Compound A7]: the “Toxicity determination Bombyx mori L. Mortality (%)” value came out at 6%.
On to `CC1(C)Nc2c([S+]([O-])C(F)(F)F)c(C#N)nn2-c2ccccc21` (centres unmarked) [Compound A8], for which the “Toxicity determination Bombyx mori L. Mortality (%)” value came to 12%.
The same measure, in the same setting: with `Nc1ccc2c(c1)-n1nc(C(F)(F)F)cc1NC2(C(F)(F)F)C(F)(F)F` [Compound A10] the figure was 15%; with `Nc1ccc2c(c1)-n1nc(C(F)(F)F)c(-c3ccc(F)cc3)c1NC2(C(F)(F)F)C(F)(F)F` [Compound A12], 13%; with `C[S+]([O-])c1nn2c(c1C#N)NC(F)(C(F)(F)F)c1ccccc1-2` (centres unmarked) [Compound A26], 7%.

A further series has as its system Apis cernan. As to the kind of experiment: Toxicity test on adult worker bees of Apis cernan, small beaker method. The format is in vivo. To be noted: 500 ppm, 48 hours. The method, then:
(2) Toxicity Test on Adult Worker Bees of Apis cernan.
Adult worker bees of Apis cernan having the same size were selected for test. The worker bees were collected from beekeeping boxes in the daystart of the test day and tested by using a small beaker method.
Operation process: A small amount of absorbent cotton was put into a 5 mL small beaker, 5 mL of a test liquid medicine (a concentration of 500 ppm) was dropped into the absorbent cotton, and stirred gently to make the absorbent cotton completely wet but not leached obviously, then the small beaker was put into a 500 mL large beaker, then 15 worker bees were put into the large beaker, and finally the large beaker was sealed with gauze. After treatment, the large beaker was placed in a dark room of an artificial climate box. After taking the medicine for 48 hours, a number of live and dead worker bees were investigated.
In the case of `CC1(C)Nc2cc(C#N)nn2-c2ccccc21` [Compound A1, 5,5-dimethyl-4,5-dihydropyrazole[1,5-α]quinazoline-2-cyano], the “Toxicity determination Apis cernan Mortality (%)” value was 12%.
Same read-out and setting: with `CC(=O)N1c2c(Br)c(C#N)nn2-c2ccccc2C1(C)C` [Compound A4] the figure was 8%; with `CC(=O)c1nn2c(c1Br)NC(C)(C)c1ccccc1-2` [Compound A5], 9%; with `CC1(C)Nc2c(Br)c(C(=O)N3CCCCC3)nn2-c2ccccc21` [Compound A7], 6%.
On the same count and under the same terms, for `CC1(C)Nc2c([S+]([O-])C(F)(F)F)c(C#N)nn2-c2ccccc21` (centres unmarked) [Compound A8] the value was 10%; for `Nc1ccc2c(c1)-n1nc(C(F)(F)F)cc1NC2(C(F)(F)F)C(F)(F)F` [Compound A10], 12%; for `Nc1ccc2c(c1)-n1nc(C(F)(F)F)c(-c3ccc(F)cc3)c1NC2(C(F)(F)F)C(F)(F)F` [Compound A12], 12%.
Same read-out and setting: for `C[S+]([O-])c1nn2c(c1C#N)NC(F)(C(F)(F)F)c1ccccc1-2` (centres unmarked) [Compound A26] the value was 10%.
